PubChem BioAssay AID292 (DTP/NCI, 2004)
Values joined by “and” are separate entries in the source; they are usually repeats but may differ in a detail not shown here. Equal values may be shown once. Inconclusive results and toxic doses are left out.

System: B6C3F1 mice, ip Sarcoma M5076, median survival T/C
Test: NCI In Vivo Anticancer Drug Screen. Data for tumor model Sarcoma M5076 (intraperitoneal) in B6C3F1 mice
Details: endpoint: median survival time, schedule: Q04DX004 (ip), higher = longer survival
Procedure, shortened: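 The readout is a ratio of survival in drug-treated animals to survival in animals given vehicle alone, taken in mice bearing a transplanted tumour line.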

[1] = dose: 50.0 mg/kg/injection, vehicle: Klucel (hydroxypropylcellulose) (HPC)
[2] = dose: 100.0 mg/kg/injection, vehicle: Klucel (hydroxypropylcellulose) (HPC)
[3] = dose: 200.0 mg/kg/injection, vehicle: Klucel (hydroxypropylcellulose) (HPC)
[4] = dose: 400.0 mg/kg/injection, vehicle: Klucel (hydroxypropylcellulose) (HPC)
[5] = dose: 6.25 mg/kg/injection, vehicle: Klucel (hydroxypropylcellulose) (HPC)
[6] = dose: 12.5 mg/kg/injection, vehicle: Klucel (hydroxypropylcellulose) (HPC)
[7] = dose: 25.0 mg/kg/injection, vehicle: Klucel (hydroxypropylcellulose) (HPC)

## C=CCCC(=O)CCCC(=O)O[C@@H]1[C@@H]2[C@H](CC1(C)C)[C@H](O)[C@@]13O[C@@H]1[C@H](O)[C@@]1(CO1)[C@@]23C
dose: 50.0 micrograms/kg/injection, vehicle: Klucel (hydroxypropylcellulose) (HPC)
  T/C: 92 % of control
dose: 100.0 micrograms/kg/injection, vehicle: Klucel (hydroxypropylcellulose) (HPC)
  T/C: 96 % of control
dose: 200.0 micrograms/kg/injection, vehicle: Klucel (hydroxypropylcellulose) (HPC)
  T/C: 96 % of control
dose: 400.0 micrograms/kg/injection, vehicle: Klucel (hydroxypropylcellulose) (HPC)
  T/C: 96 % of control
dose: 800.0 micrograms/kg/injection, vehicle: Klucel (hydroxypropylcellulose) (HPC)
  T/C: 93 % of control

## CNNCc1ccc(C(=O)NC(C)C)cc1
dose: 22.0 mg/kg/injection, vehicle: saline
  T/C: 119 % of control
dose: 88.0 mg/kg/injection, vehicle: saline
  T/C: 152 % of control
dose: 352.0 mg/kg/injection, vehicle: saline
  T/C: 152 % of control

## CC1=C(N2CCOCC2)C(N2CCOCC2)=C(C)C(=O)C1=O
[1]
  T/C: 104 % of control
[2]
  T/C: 100 % of control
[3]
  T/C: 100 % of control
[4]
  T/C: 113 % of control
dose: 800.0 mg/kg/injection, vehicle: Klucel (hydroxypropylcellulose) (HPC)
  T/C: 95 % of control

## COc1cccc(C2NC(=S)NC(=O)C2C#N)c1 (stereo not drawn)
[1]
  T/C: 99 % of control
[2]
  T/C: 99 % of control
[3]
  T/C: 95 % of control
[4]
  T/C: 97 % of control

## COC1N(C2CC(O)C(CO)O2)C(=O)NC(=O)C1(F)Br (stereo not drawn)
dose: 25.0 mg/kg/injection, vehicle: saline
  T/C: 108 % of control
dose: 50.0 mg/kg/injection, vehicle: saline
  T/C: 113 % of control
dose: 100.0 mg/kg/injection, vehicle: saline
  T/C: 112 % of control
dose: 200.0 mg/kg/injection, vehicle: saline
  T/C: 114 % of control
dose: 400.0 mg/kg/injection, vehicle: saline
  T/C: 113 % of control

## CC1=CCCC2C1(C)CCC(C)C2(C)Cc1cc(O)ccc1O (stereo not drawn)
[5]
  T/C: 103 % of control
[6]
  T/C: 99 % of control
[7]
  T/C: 101 % of control
[1]
  T/C: 99 % of control
[2]
  T/C: 102 % of control

## CC(O)(CSc1ccccc1)CSc1ccccc1 (tested in a mixture with another compound)
dose: 18.75 mg/kg/injection, vehicle: saline with Tween-80
  T/C: 104 % of control
dose: 37.5 mg/kg/injection, vehicle: saline with Tween-80
  T/C: 98 % of control
dose: 75.0 mg/kg/injection, vehicle: saline with Tween-80
  T/C: 100 % of control
dose: 150.0 mg/kg/injection, vehicle: saline with Tween-80
  T/C: 101 % of control
dose: 300.0 mg/kg/injection, vehicle: saline with Tween-80
  T/C: 100 % of control

## O=S(CCCl)CCCl
[5]
  T/C: 102 % of control
[6]
  T/C: 98 % of control
[7]
  T/C: 98 % of control
[1]
  T/C: 106 % of control

## COc1ccccc1N1C(=O)C(=O)C(C(C)=O)C1=O (stereo not drawn)
dose: 43.75 mg/kg/injection, vehicle: Klucel (hydroxypropylcellulose) (HPC)
  T/C: 115 % of control
dose: 87.5 mg/kg/injection, vehicle: Klucel (hydroxypropylcellulose) (HPC)
  T/C: 98 % of control
dose: 175.0 mg/kg/injection, vehicle: Klucel (hydroxypropylcellulose) (HPC)
  T/C: 100 % of control
dose: 350.0 mg/kg/injection, vehicle: Klucel (hydroxypropylcellulose) (HPC)
  T/C: 98 % of control

## C=C1C(O)C2OC3(CCC(/C=C/C(C)C4CC5(C)SC5C5(OC(CC(C)(O)C(=O)O)CCC5O)O4)O3)CCC2OC1C(O)CC(C)C1OC2(CCCCO2)CCC1C (stereo not drawn)
dose: 2.5 micrograms/kg/injection, vehicle: saline + alcohol
  T/C: 101 % of control
dose: 5.0 micrograms/kg/injection, vehicle: saline + alcohol
  T/C: 96 % of control
dose: 10.0 micrograms/kg/injection, vehicle: saline + alcohol
  T/C: 99 % of control
dose: 20.0 micrograms/kg/injection, vehicle: saline + alcohol
  T/C: 95 % of control
dose: 40.0 micrograms/kg/injection, vehicle: saline + alcohol
  T/C: 95 % of control

## Cc1ccc(C)c(NC(=O)C2C(=O)C(=O)N(c3cc(C)ccc3C)C2=O)c1 (stereo not drawn)
[1]
  T/C: 102 % of control
[2]
  T/C: 100 % of control
[3]
  T/C: 108 % of control
[4]
  T/C: 105 % of control

## CC1(C)Nc2cc3c(cc2-n2cccc21)oc1ccccc13
dose: 150.0 mg/kg/injection, vehicle: DMSO
  T/C: 101 % of control
dose: 300.0 mg/kg/injection, vehicle: DMSO
  T/C: 100 % of control
dose: 600.0 mg/kg/injection, vehicle: DMSO
  T/C: 101 % of control
dose: 1200.0 mg/kg/injection, vehicle: DMSO
  T/C: 97 % of control

## COc1cc2oc3c(C)c(=O)cc4oc(-c5ccccc5)cc(c2c2c1CCC(c1ccccc1)O2)c43 (stereo not drawn)
dose: 1.75 mg/kg/injection, vehicle: Klucel (hydroxypropylcellulose) (HPC)
  T/C: 109 % of control
dose: 3.5 mg/kg/injection, vehicle: Klucel (hydroxypropylcellulose) (HPC)
  T/C: 102 % of control
dose: 7.0 mg/kg/injection, vehicle: Klucel (hydroxypropylcellulose) (HPC)
  T/C: 102 % of control
dose: 12.5 mg/kg/injection, vehicle: saline with Tween-80
  T/C: 98 % of control
dose: 14.0 mg/kg/injection, vehicle: Klucel (hydroxypropylcellulose) (HPC)
  T/C: 109 % of control
dose: 25.0 mg/kg/injection, vehicle: saline with Tween-80
  T/C: 98 % of control
dose: 28.0 mg/kg/injection, vehicle: Klucel (hydroxypropylcellulose) (HPC)
  T/C: 97 % of control
dose: 50.0 mg/kg/injection, vehicle: saline with Tween-80
  T/C: 99 % of control and 100 % of control
dose: 100.0 mg/kg/injection, vehicle: saline with Tween-80
  T/C: 94 % of control and 96 % of control
dose: 200.0 mg/kg/injection, vehicle: saline with Tween-80
  T/C: 96 % of control and 103 % of control
dose: 400.0 mg/kg/injection, vehicle: saline with Tween-80
  T/C: 87 % of control
dose: 800.0 mg/kg/injection, vehicle: saline with Tween-80
  T/C: 110 % of control

## Cc1nc(N)nc(N)c1-c1ccc(Cl)c(Cl)c1
dose: 1.25 mg/kg/injection, vehicle: saline
  T/C: 105 % of control
dose: 2.5 mg/kg/injection, vehicle: saline
  T/C: 100 % of control
dose: 5.0 mg/kg/injection, vehicle: saline
  T/C: 102 % of control
dose: 10.0 mg/kg/injection, vehicle: saline
  T/C: 113 % of control

## Nc1nc2n[nH]nc2c(=O)[nH]1
dose: 50.0 mg/kg/injection, vehicle: suspension in saline
  T/C: 118 % of control
dose: 200.0 mg/kg/injection, vehicle: suspension in saline
  T/C: 123 % of control

## CCOC(=O)C(N)CSC(=O)NC (stereo not drawn)
dose: 130.0 mg/kg/injection, vehicle: saline
  T/C: 105 % of control
dose: 216.0 mg/kg/injection, vehicle: saline
  T/C: 111 % of control and 119 % of control
dose: 360.0 mg/kg/injection, vehicle: saline
  T/C: 115 % of control and 122 % of control

## C/C=C\C1OC1(C)c1cc(=O)c2c(C)cc3c(c2o1)C(=O)c1c(O)c(C2CC(C)(N(C)C)C(OC(C)=O)C(C)O2)cc(C2CC(N(C)C)C(O)C(C)O2)c1C3=O (stereo not drawn)
dose: 0.19 mg/kg/injection, vehicle: saline + alcohol
  T/C: 105 % of control
dose: 0.38 mg/kg/injection, vehicle: saline + alcohol
  T/C: 110 % of control
dose: 0.75 mg/kg/injection, vehicle: saline + alcohol
  T/C: 120 % of control
dose: 3.0 mg/kg/injection, vehicle: saline + alcohol
  T/C: 156 % of control
